Measured values reported in US11168095B2, “ASK1 inhibiting agents” (BIOGEN MA INC., priority 2017, dated 2021).

Assays:
[1] = biological target: GST-hASK1 (Homo sapiens (Human), UniProt Q99683); experiment: ASK1 TR-FRET assay; format: biochemical; settings: 5 nM GST-hASK1, 100 μM ATP, 2 μM STK Substrate 3
Method: The protein kinase activity of 5 nM GST-hASK1(Life Technologies PV4011) was assayed with 100 μM ATP and 2 μM of HTRF biotinylated STK Substrate 3 (CisBio Kit 62ST3PEJ), at ambient temperature in 25 mM Hepes, pH 7.5, 50 mM NaCl, 10 mM MgCl2, 0.02% Brij-35, 1 mM DTT, and 1% DMSO.
After a 10 minute pre-incubation, ASK1 protein kinase activity was initiated by addition of 10 μL of 300 μM ATP.

[2] = biological target: ASK1 T838 auto phosphorylation in HEK-293T cells (Homo sapiens (Human), UniProt Q99683); experiment: ASK1 (AUTO PHOS T838) assay, MSD format; format: cell-based; settings: HEK 293T cells transfected with ASK1-V5 full length plasmid, compounds 1 hr at 37° C.; read-out: IC50
Sequence of ASK1 T838 auto phosphorylation in HEK-293T cells (Q99683 whole entry): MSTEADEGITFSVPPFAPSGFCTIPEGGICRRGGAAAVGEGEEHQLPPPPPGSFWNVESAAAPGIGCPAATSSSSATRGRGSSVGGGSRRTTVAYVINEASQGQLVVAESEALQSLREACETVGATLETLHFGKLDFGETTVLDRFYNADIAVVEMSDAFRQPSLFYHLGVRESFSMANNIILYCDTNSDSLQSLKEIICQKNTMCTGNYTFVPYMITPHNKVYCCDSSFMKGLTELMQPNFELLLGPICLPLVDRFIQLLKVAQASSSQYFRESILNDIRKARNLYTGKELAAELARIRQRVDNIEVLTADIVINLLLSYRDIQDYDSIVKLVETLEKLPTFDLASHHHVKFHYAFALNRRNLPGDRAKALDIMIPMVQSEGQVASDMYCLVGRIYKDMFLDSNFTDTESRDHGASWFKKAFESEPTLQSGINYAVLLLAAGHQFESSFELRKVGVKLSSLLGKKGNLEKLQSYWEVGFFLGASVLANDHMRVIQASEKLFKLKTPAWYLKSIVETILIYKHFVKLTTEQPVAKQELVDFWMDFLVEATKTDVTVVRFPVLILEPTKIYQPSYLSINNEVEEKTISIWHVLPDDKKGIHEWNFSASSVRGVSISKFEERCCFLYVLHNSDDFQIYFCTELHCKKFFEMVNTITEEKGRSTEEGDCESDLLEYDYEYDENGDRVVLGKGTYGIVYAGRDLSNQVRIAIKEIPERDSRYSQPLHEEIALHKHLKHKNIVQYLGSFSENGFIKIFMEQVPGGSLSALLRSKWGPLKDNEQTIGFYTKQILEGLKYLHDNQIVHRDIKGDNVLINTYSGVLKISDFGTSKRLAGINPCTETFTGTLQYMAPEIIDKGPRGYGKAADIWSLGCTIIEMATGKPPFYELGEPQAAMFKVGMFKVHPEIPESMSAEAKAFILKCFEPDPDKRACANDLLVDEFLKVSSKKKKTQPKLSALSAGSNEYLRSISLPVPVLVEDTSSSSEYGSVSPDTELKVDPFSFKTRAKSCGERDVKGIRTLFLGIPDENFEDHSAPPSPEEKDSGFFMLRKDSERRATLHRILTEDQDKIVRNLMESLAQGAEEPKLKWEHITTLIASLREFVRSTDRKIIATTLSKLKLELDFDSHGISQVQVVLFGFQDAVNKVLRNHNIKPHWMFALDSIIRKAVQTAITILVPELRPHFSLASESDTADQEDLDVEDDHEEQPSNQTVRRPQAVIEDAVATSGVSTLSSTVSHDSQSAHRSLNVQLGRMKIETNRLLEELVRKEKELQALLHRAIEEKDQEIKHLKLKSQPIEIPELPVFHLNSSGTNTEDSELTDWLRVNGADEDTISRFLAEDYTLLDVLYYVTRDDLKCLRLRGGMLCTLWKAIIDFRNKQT

[3] = biological target: ASK1/MAP3K5 (Homo sapiens (Human), UniProt Q99683); experiment: ASK1/MAP3K5 assay by Reaction Biology Corp.; format: biochemical; settings: 20 μM myelin basic protein (MBP), 10 μM ATP
Sequence of ASK1/MAP3K5 (Q99683 whole entry): as above
Method: ASK1/MAP3K5 was used as the protein kinase and 20 μM of myelin basic protein (MBP) and 10 μM ATP were used as the substrate.

Sequence of GST-hASK1 (Q99683 649-946): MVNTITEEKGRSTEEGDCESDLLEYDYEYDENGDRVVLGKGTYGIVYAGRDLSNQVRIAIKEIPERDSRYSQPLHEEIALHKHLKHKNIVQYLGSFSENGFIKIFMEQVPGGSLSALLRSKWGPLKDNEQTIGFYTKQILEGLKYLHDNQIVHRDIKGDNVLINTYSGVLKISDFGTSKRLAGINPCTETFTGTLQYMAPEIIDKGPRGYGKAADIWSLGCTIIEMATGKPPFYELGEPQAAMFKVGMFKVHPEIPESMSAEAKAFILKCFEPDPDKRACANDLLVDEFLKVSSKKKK

Structure (SMILES) | IC50 [1] [nM] | IC50 [2] [nM] | IC50 ([1]; class given in words) [nM] | IC50 [3] [nM]
O=C1Nc2cccc(n2)-c2nncn2C/C=C/COc2ccc(Br)cc21 [Example 162, (E)-5^5-Bromo-1^4H-6-oxa-3-aza-2(2,6)-pyridina-1(3,4)-triazola-5(1,2)-benzenacyclodecaphan-8-en-4-one] | < 100 | 1000 to 10000 | – | –
O=C1Nc2cccc(n2)-c2nncn2C/C=C\COc2cc(C(F)(F)F)ccc21 [Example 155, (Z)-5^4-(Trifluoromethyl)-1^4H-6-oxa-3-aza-2(2,6)-pyridina-1(3,4)-triazola-5(1,2)-benzenacyclodecaphan-8-en-4-one] | 100 to 1000 | 1000 to 10000 | – | –
O=C1Nc2cccc(n2)-c2nncn2C/C=C\COc2ccc(F)cc21 [Example 159, (Z)-5^5-Fluoro-1^4H-6-oxa-3-aza-2(2,6)-pyridina-1(3,4)-triazola-5(1,2)-benzenacyclodecaphan-8-en-4-one] | < 100 | < 1000 | – | –
O=C1Nc2cccc(n2)-c2nncn2C/C=C\COc2c(Br)cccc21 [Example 164, (Z)-5^3-Bromo-1^4H-6-oxa-3-aza-2(2,6)-pyridina-1(3,4)-triazola-5(1,2)-benzenacyclodecaphan-8-en-4-one] | – | > 10000 | ≥ 10000 | –
O=C1Nc2cccc(n2)-c2nncn2C/C=C/CCOc2cc(F)c(Br)cc21 [Example 177, (Z)-5^5-Bromo-5^4-fluoro-1^4H-6-oxa-3-aza-2(2,6)-pyridina-1(3,4)-triazola-5(1,2)-benzenacycloundecaphan-9-en-4-one] | – | 1000 to 10000 | – | < 100
C[C@H]1CCCOc2cc(F)c(C3=CCOCC3)cc2C(=O)Nc2cccc(n2)-c2nncn21 [Example 108, (S)-5^5-(3,6-Dihydro-2H-pyran-4-yl)-5^4-fluoro-10-methyl-1^4H-6-oxa-3-aza-2(2,6)-pyridina-1(3,4)-triazola-5(1,2)-benzenacyclodecaphan-4-one] | – | < 1000 | – | < 100
O=C1Nc2cccc(n2)-c2nncn2C/C=C\CCOc2cc(F)c(-c3ccncc3)cc21 [Example 180, (Z)-5^4-Fluoro-5^5-(pyridin-4-yl)-1^4H-6-oxa-3-aza-2(2,6)-pyridina-1(3,4)-triazola-5(1,2)-benzenacycloundecaphan-9-en-4-one] | – | < 1000 | – | < 100
C[C@H]1CCCOc2cc(F)c(N3CC4CC(C3)O4)cc2C(=O)Nc2cccc(n2)-c2nncn21 [Example 104, (10S)-5^5-(6-Oxa-3-azabicyclo[3.1.1]heptan-3-yl)-5^4-fluoro-10-methyl-1^4H-6-oxa-3-aza-2(2,6)-pyridina-1(3,4)-triazola-5(1,2)-benzenacyclodecaphan-4-one] | – | < 1000 | – | < 100
O=C1Nc2cccc(n2)-c2nncn2C/C=C\CCOc2ccccc21 [Example 174, (E)-1^4H-6-Oxa-3-aza-2(2,6)-pyridina-1(3,4)-triazola-5(1,2)-benzenacycloundecaphan-9-en-4-one] | – | < 1000 | – | < 100
C[C@H]1CCCn2cnnc2-c2cccc(n2)NC(=O)c2cc(N3CCN(C)CC3)ccc2O1 [Example 140, (S)-7-Methyl-5^5-(4-methylpiperazin-1-yl)-1^4H-6-oxa-3-aza-2(2,6)-pyridina-1(3,4)-triazola-5(1,2)-benzenacyclodecaphan-4-one] | – | < 1000 | – | < 100
O=C1Nc2cccc(n2)-c2nncn2CCCCCOc2ccc(Br)cc21 [Example 170, 5^5-Bromo-1^4H-6-oxa-3-aza-2(2,6)-pyridina-1(3,4)-triazola-5(1,2)-benzenacycloundecaphan-4-one] | < 100 | – | – | –
C[C@H]1CCCOc2cc(F)c(Br)cc2C(=O)Nc2cccc(n2)-c2nncn21 [Example 101, (S)-5^5-Bromo-5^4-fluoro-10-methyl-1^4H-6-oxa-3-aza-2(2,6)-pyridina-1(3,4)-triazola-5(1,2)-benzenacyclodecaphan-4-one] | – | < 1000 | – | < 100
C[C@@H]1CCCn2cnnc2-c2cccc(n2)NC(=O)c2cc(C#N)ccc2O1 [Example 151, (R)-7-Methyl-4-oxo-1^4H-6-oxa-3-aza-2(2,6)-pyridina-1(3,4)-triazola-5(1,2)-benzenacyclodecaphane-5^5-carbonitrile] | – | < 1000 | – | < 100

Results, then the compound that gave them:

IC50 [1] [nM] | IC50 [2] [nM] | IC50 ([1]; class given in words) [nM] | IC50 [3] [nM] | Structure (SMILES)
1000 to 10000 | – | – | – | O=C1Nc2cccc(n2)-c2nncn2CCCOc2ccc(Br)cc21 [Example 183, 5^5-Bromo-1^4H-6-oxa-3-aza-2(2,6)-pyridina-1(3,4)-triazola-5(1,2)-benzenacyclononaphan-4-one]
100 to 1000 | – | – | – | O=C1Nc2cccc(n2)-c2nncn2CCCCOc2ccc(C(=O)N3CCCC3)cc21 [Example 31, 5^5-(Pyrrolidine-1-carbonyl)-1^4H-6-oxa-3-aza-2(2,6)-pyridina-1(3,4)-triazola-5(1,2)-benzenacyclodecaphan-4-one]
– | > 10000 | ≥ 10000 | – | CN1C(=O)c2cc(Br)ccc2OCCCCn2cnnc2-c2cccc1n2 [Example 152, 5^5-Bromo-3-methyl-1^4H-6-oxa-3-aza-2(2,6)-pyridina-1(3,4)-triazola-5(1,2)-benzenacyclodecaphan-4-one]
100 to 1000 | – | – | – | O=C1Nc2cccc(n2)-c2nncn2CCCOc2ccc(N3CCOCC3)cc21 [Example 184, 5^5-Morpholino-1^4H-6-oxa-3-aza-2(2,6)-pyridina-1(3,4)-triazola-5(1,2)-benzenacyclononaphan-4-one]
– | < 1000 | – | < 100 | O=C1Nc2cccc(n2)-c2nncn2CCCCOc2cc(F)c(-c3cncnc3)cc21 [Example 60, 5^4-Fluoro-5^5-(pyrimidin-5-yl)-1^4H-6-oxa-3-aza-2(2,6)-pyridina-1(3,4)-triazola-5(1,2)-benzenacyclodecaphan-4-one]
– | < 1000 | – | < 100 | Cc1cn(-c2cc3c(cc2F)OCCCCn2cnnc2-c2cccc(n2)NC3=O)cn1 [Example 66, 5^4-Fluoro-5^5-(4-methyl-1H-imidazol-1-yl)-1^4H-6-oxa-3-aza-2(2,6)-pyridina-1(3,4)-triazola-5(1,2)-benzenacyclodecaphan-4-one]
– | < 1000 | – | < 100 | CN1CCn2ncc(-c3ccc4c(c3)C(=O)Nc3cccc(n3)-c3nncn3CCCCO4)c2C1 [Example 40, 5^5-(5-Methyl-4,5,6,7-tetrahydropyrazolo[1,5-a]pyrazin-3-yl)-1^4H-6-oxa-3-aza-2(2,6)-pyridina-1(3,4)-triazola-5(1,2)-benzenacyclodecaphan-4-one]
– | 1000 to 10000 | – | 100 to 1000 | C[C@@H]1CCCOc2ccc(F)cc2C(=O)Nc2cccc(n2)-c2nncn21 [Example 100, (R)-5^5-Fluoro-10-methyl-1^4H-6-oxa-3-aza-2(2,6)-pyridina-1(3,4)-triazola-5(1,2)-benzenacyclodecaphan-4-one]
– | < 1000 | – | < 100 | CN1CCN(c2cc3c(cc2F)OCCCCn2cnnc2-c2cccc(n2)NC3=O)CC1 [Example 73, 5^4-Fluoro-5^5-(4-methylpiperazin-1-yl)-1^4H-6-oxa-3-aza-2(2,6)-pyridina-1(3,4)-triazola-5(1,2)-benzenacyclodecaphan-4-one]
– | < 1000 | – | < 100 | C[C@H]1CCCn2cnnc2-c2cccc(n2)NC(=O)c2cc(-c3cnn(CCN(C)C)c3)ccc2O1 [Example 146, (S)-5^5-(1-(2-(Dimethylamino)ethyl)-1H-pyrazol-4-yl)-7-methyl-1^4H-6-oxa-3-aza-2(2,6)-pyridina-1(3,4)-triazola-5(1,2)-benzenacyclodecaphan-4-one]
– | 1000 to 10000 | – | 100 to 1000 | Cc1ccnn1-c1ccc2c(c1)C(=O)Nc1cccc(n1)-c1nncn1CCCCO2 [Example 45a, 5^5-(5-Methyl-1H-pyrazol-1-yl)-1^4H-6-oxa-3-aza-2(2,6)-pyridina-1(3,4)-triazola-5(1,2)-benzenacyclodecaphan-4-one]
– | < 1000 | – | < 100 | Cc1c(-c2ccc3c(c2)C(=O)Nc2cccc(n2)-c2nncn2CCCCO3)cnn1C [Example 37, 5^5-(1,5-Dimethyl-1H-pyrazol-4-yl)-1^4H-6-oxa-3-aza-2(2,6)-pyridina-1(3,4)-triazola-5(1,2)-benzenacyclodecaphan-4-one]
– | < 1000 | – | < 100 | O=C1Nc2cccc(n2)-c2nncn2CCCCOc2cc(N3CCOCC3)c(F)cc21 [Example 87, 5^5-Fluoro-5^4-morpholino-1^4H-6-oxa-3-aza-2(2,6)-pyridina-1(3,4)-triazola-5(1,2)-benzenacyclodecaphan-4-one]
– | < 1000 | – | < 100 | Cc1nccn1-c1ccc2c(c1)C(=O)Nc1cccc(n1)-c1nncn1CCCCO2 [Example 43, 5^5-(2-Methyl-1H-imidazol-1-yl)-1^4H-6-oxa-3-aza-2(2,6)-pyridina-1(3,4)-triazola-5(1,2)-benzenacyclodecaphan-4-one]
– | < 1000 | – | < 100 | C[C@H]1CCCOc2cc(F)c(-c3ccncc3)cc2C(=O)Nc2cccc(n2)-c2nncn21 [Example 112, (S)-5^4-Fluoro-10-methyl-5^5-(pyridin-4-yl)-1^4H-6-oxa-3-aza-2(2,6)-pyridina-1(3,4)-triazola-5(1,2)-benzenacyclodecaphan-4-one]
– | < 1000 | – | < 100 | N#Cc1cc2c(cc1F)OCCCCn1cnnc1-c1cccc(n1)NC2=O [Example 74, 5^4-Fluoro-4-oxo-1^4H-6-oxa-3-aza-2(2,6)-pyridina-1(3,4)-triazola-5(1,2)-benzenacyclodecaphane-55-carbonitrile]
